In patent US8759535B2, “Substituted fused imidazole derivatives, pharmaceutical compositions, and methods of use thereof” (High Point Pharmaceuticals, LLC, priority 2010, dated 2014):
Structures can show the parent of a compound that is named as a salt.

Tested on: HMOX1
Experiment: HMOX1 Protein Assay (immunostaining of HO-1 in NHLF cells, GE InCell 1000)
Format: cell-based
Details: Homo sapiens, fold change above DMSO treated cells, 16 h; for fold induction at 5 µM: 5 μM compound; for fold induction at 3 µM: 3 μM compound (asterisk)
In short: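 Fold induction of HO-1 over vehicle, normally at 5 μM compound (asterisk marks 3 μM), in 0.8% DMSO medium. Normal human lung fibroblasts were treated 16 h, then paraformaldehyde-fixed, anti-HO-1/Alexa 488 stained with Hoechst, and read by high-content imaging.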

| Compound | fold induction at 5 µM | fold induction at 3 µM |
| --- | --- | --- |
| COC(=O)CCNC(=O)c1ccc2c(c1)nc(Nc1nc3ccc(OC(F)(F)F)cc3s1)n2C [Example 97, 3-{[1-Methyl-2-(6-trifluoromethoxy-benzothiazol-2-ylamino)-1H-benzoimidazole-5-carbonyl]-amino}-propionic acid methyl ester] | 19.2 | – |
| CCNC(=O)c1ccc2c(c1)nc(Nc1nc3ccc(C(F)(F)F)cc3s1)n2C [Example 26, 1-Methyl-2-(6-trifluoromethyl-benzothiazol-2-ylamino)-1H-benzoimidazole-5-carboxylic acid ethylamide] | 15.5 | – |
| CCN(CC)CCCNC(=O)c1ccc2c(c1)nc(Nc1nc3ccc(C(F)(F)F)cc3s1)n2C [Example 353, 1-Methyl-2-(6-trifluoromethyl-benzothiazol-2-ylamino)-1H-benzoimidazole-5-carboxylic acid (3-diethylamino-propyl)-amide] | – | 23 |
| Cn1c(Nc2nc3ccc(OC(F)(F)F)cc3s2)nc2cc(C(=O)NCCCS(C)(=O)=O)ccc21 [Example 110, 1-Methyl-2-(6-trifluoromethoxy-benzothiazol-2-ylamino)-1H-benzimidazole-5-carboxylic acid (3-methanesulfonyl-propyl)-amide] | 26.3 | – |
| COC(=O)c1ccc2c(c1)nc(Nc1nc3ccc(S(C)(=O)=O)cc3s1)n2C [Example 113, 2-(6-Methanesulfonyl-benzothiazol-2-ylamino)-1-methyl-1H-benzoimidazole-5-carboxylic acid methyl ester] | 27.6 | – |
| Cn1c(Nc2nc3ccc(Cl)cc3s2)nc2cc(C(=O)NCC(=O)N3CCC[C@H](O)C3)ccc21 [Example 433, 2-(6-Chloro-benzothiazol-2-ylamino)-1-methyl-1H-benzoimidazole-5-carboxylic acid [2-((S)-3-hydroxy-piperidin-1-yl)-2-oxo-ethyl]-amide] | – | 29 |
| Cn1c(Nc2nc3ccc(OC(F)(F)F)cc3s2)nc2cc(C(=O)NCc3ccco3)ccc21 [Example 48, 1-Methyl-2-(6-trifluoromethoxy-benzothiazol-2-ylamino)-1H-benzoimidazole-5-carboxylic acid (furan-2-ylmethyl)-amide] | 15.8 | – |
| Cn1c(Nc2nc3ccc(Cl)cc3s2)nc2cc(C(=O)NC3CCN(CCNS(C)(=O)=O)C3)ccc21 (stereo not drawn) [Example 300, 2-(6-Chloro-benzothiazol-2-ylamino)-1-methyl-1H-benzoimidazole-5-carboxylic acid [1-(2-methanesulfonylamino-ethyl)-pyrrolidin-3-yl]-amide] | 26.2 | – |
| CC(O)CCNC(=O)c1ccc2c(c1)nc(Nc1nc3ccc(C(F)(F)F)cc3s1)n2C (stereo not drawn) [Example 216, 1-Methyl-2-(6-trifluoromethyl-benzothiazol-2-ylamino)-1H-benzoimidazole-5-carboxylic acid (3-hydroxy-butyl)-amide] | – | 31.6 |
| CCn1c(Nc2nc3ccc(Cl)cc3s2)nc2cc(C(=O)NCCF)ccc21 [Example 176, 2-(6-Chloro-benzothiazol-2-ylamino)-1-ethyl-1H-benzoimidazole-5-carboxylic acid (2-fluoro-ethyl)-amide] | 25.8 | – |
| CCOCCNC(=O)c1ccc2c(c1)nc(Nc1nc3ccc(Cl)cc3s1)n2CC [Example 179, 2-(6-Chloro-benzothiazol-2-ylamino)-1-ethyl-1H-benzoimidazole-5-carboxylic acid (2-ethoxy-ethyl)-amide] | 24.4 | – |
| CCn1c(Nc2nc3ccc(Cl)cc3s2)nc2cc(C(=O)NCC(C)(C)OC)ccc21 [Example 178, 2-(6-Chloro-benzothiazol-2-ylamino)-1-ethyl-1H-benzoimidazole-5-carboxylic acid (2-methoxy-2-methyl-propyl)-amide] | 25.7 | – |
| CC(C)Cn1c(Nc2nc3ccc(OC(F)(F)F)cc3s2)nc2cc(C(=O)O)ccc21 [Example 163, 1-Isobutyl-2-(6-trifluoromethoxy-benzothiazol-2-ylamino)-1H-benzoimidazole-5-carboxylic acid] | 26.3 | – |
| Cc1nc(-c2ccc3nc(Nc4nc5cc(OC(F)(F)F)ccc5s4)n(C)c3c2)n[nH]1 [Example 198, [1-Methyl-6-(5-methyl-1H-1,2,4-triazol-3-yl)-1H-benzimidazol-2-yl]-(5-trifluoromethoxy-benzothiazol-2-yl)-amine] | 12 | – |
| Cn1c(Nc2nc3ccc(OC(F)(F)F)cc3s2)nc2cc(C(=O)NC3CCN(S(C)(=O)=O)CC3)ccc21 [Example 90, 1-Methyl-2-(6-trifluoromethoxy-benzothiazol-2-ylamino)-1H-benzoimidazole-5-carboxylic acid (1-methanesulfonyl-piperidin-4-yl)-amide] | 8.1 | – |
| Cn1c(Nc2nc3ccc(OC(F)(F)F)cc3s2)nc2cc(C(=O)NCCCN)ccc21 [Example 344, 1-Methyl-2-(6-trifluoromethoxy-benzothiazol-2-ylamino)-1H-benzoimidazole-5-carboxylic acid (3-amino-propyl)-amide hydrochloride] | – | 25.7 |
| Cn1c(Nc2nc3ccc(OC(F)(F)F)cc3s2)nc2cc(C(=O)NCCNC(=O)OC(C)(C)C)ccc21 [Example 103, (2-{[1-Methyl-2-(6-trifluoromethoxy-benzothiazol-2-ylamino)-1H-benzoimidazole-5-carbonyl]-amino}-ethyl)-carbamic acid tert-butyl ester] | 9 | – |
| Cn1c(Nc2nc3ccc(OC(F)(F)F)cc3s2)nc2cc(C(=O)NCC(=O)N3CCC(C(F)(F)F)CC3)ccc21 [Example 449, 1-Methyl-2-(6-trifluoromethoxy-benzothiazol-2-ylamino)-1H-benzoimidazole-5-carboxylic acid [2-oxo-2-(4-trifluoromethyl-piperidin-1-yl)-ethyl]-amide] | 23 | – |
| COc1cc2c(cc1C(=O)NCC(C)O)nc(Nc1nc3ccc(OC(F)(F)F)cc3s1)n2C (stereo not drawn) [Example 68, 6-Methoxy-1-methyl-2-(6-trifluoromethoxy-benzothiazol-2-ylamino)-1H-benzoimidazole-5-carboxylic acid (2-hydroxy-propyl)-amide] | 21.1 | – |
| COCCNC(=O)c1ccc2c(c1)nc(Nc1nc3cc(F)ccc3s1)n2C [Example 123, 2-(5-Fluoro-benzothiazol-2-ylamino)-1-methyl-1H-benzimidazole-5-carboxylic acid (2-methoxy-ethyl)-amide] | 12.7 | – |
| Cn1c(Nc2nc3ccc(Cl)cc3s2)nc2cc(C(=O)NCCN3CCCC(F)(F)C3)ccc21 [Example 336, 2-(6-Chloro-benzothiazol-2-ylamino)-1-methyl-1H-benzoimidazole-5-carboxylic acid [2-(3,3-difluoro-piperidin-1-yl)-ethyl]-amide] | 16.1 | – |
